Where a name gives a salt, the structure may show the parent alone.
Key:
rat 5-HT7 receptor = rat 5-HT7 receptor (Rattus norvegicus (Rat), UniProt P32305); assay: r5-HT7 binding assay, competitive radioligand binding with [3H]5-CT
Outline: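 Competition against [3H]5-CT on rat 5-HT7 HEK-293 membranes; Ki from radioactivity. Functional: 10 min compound, 100 nM 5-CT for 20 min, cAMP immunoassay after lysis.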

human SERT = human SERT (Homo sapiens (Human), UniProt P31645); assay: human SERT binding assay with [3H]-citalopram on HEK-293 membranes; details: read-out: hSERT binding Ki
Chain of human SERT (P31645 whole entry): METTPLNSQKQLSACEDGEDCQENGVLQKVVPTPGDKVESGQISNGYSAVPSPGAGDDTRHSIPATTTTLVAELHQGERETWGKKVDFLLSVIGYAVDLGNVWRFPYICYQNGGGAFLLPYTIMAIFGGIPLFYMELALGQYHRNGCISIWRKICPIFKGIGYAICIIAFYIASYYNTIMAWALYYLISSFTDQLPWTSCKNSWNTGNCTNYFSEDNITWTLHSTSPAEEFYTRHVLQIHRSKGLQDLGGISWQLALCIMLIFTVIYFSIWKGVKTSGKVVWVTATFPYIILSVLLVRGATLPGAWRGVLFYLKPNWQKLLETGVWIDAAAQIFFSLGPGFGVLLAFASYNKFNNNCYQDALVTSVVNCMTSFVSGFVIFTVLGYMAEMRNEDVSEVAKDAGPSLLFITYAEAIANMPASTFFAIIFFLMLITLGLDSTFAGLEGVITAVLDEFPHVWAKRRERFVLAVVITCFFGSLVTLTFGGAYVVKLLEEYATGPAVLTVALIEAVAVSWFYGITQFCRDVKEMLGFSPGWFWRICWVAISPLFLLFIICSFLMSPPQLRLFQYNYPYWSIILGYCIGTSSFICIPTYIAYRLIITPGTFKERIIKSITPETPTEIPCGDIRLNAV
Method: Receptor binding was performed using membrane fractions prepared from the HEK-293 cell line recombinantly expressing rat 5-HT7 receptors (NCBI accession NM_022938). Compound affinity for the rat 5-HT7 receptor subtype was evaluated by competitive radioligand binding assays using 5-carboxamido[^3H]tryptamine ([^3H]5-CT) (Amersham Biosciences, cat. 90000403) detection. HitHunter™ cAMP assays are in-vitro based competitive immunoassays. The assay was performed on the HEK-293 cell line stably transfected with r5-HT7 receptor. Cells were pre-incubated with test compounds for 10 minutes. For antagonist testing, the cells were then challenged with 100 nM 5-CT for 20 minutes. Cells were then lysed and cAMP measured according to manufacturers protocol (Amersham, cat. NET791250UC) or [^3H]mesulergine (Amersham, cat. TRK1041). The assay was performed on membranes prepared from HEK-293 cells stably transfected with h5-HT6. Following centrifugation, membranes were resuspended and incubated for 60 min at room temperature with 1.7 nM [^3H]LSD in the presence of increasing concentration of test compounds. Nonspecific binding was defined in the presence of 10 μM clozapine (Tocris, cat. TRK1068). Homogenized HEK-293 membranes expressing the human SERT were incubated in 50 mM Tris-HCl (pH 7.5), 120 mM NaCl, 5 mM KCl with [^3H]-citalopram (3 nM) with or without test compounds. Nonspecific binding was determined in the presence of 10 μM fluoxetine. Radioactivity readouts and Ki values were performed as previously described for r5-HT7. […] Compounds were assayed in their free form or as salts, as indicated in the Examples section above.

[1] = rat 5-HT7 receptor, HEK-293 membranes

Chain of rat 5-HT7 receptor (P32305 1-435): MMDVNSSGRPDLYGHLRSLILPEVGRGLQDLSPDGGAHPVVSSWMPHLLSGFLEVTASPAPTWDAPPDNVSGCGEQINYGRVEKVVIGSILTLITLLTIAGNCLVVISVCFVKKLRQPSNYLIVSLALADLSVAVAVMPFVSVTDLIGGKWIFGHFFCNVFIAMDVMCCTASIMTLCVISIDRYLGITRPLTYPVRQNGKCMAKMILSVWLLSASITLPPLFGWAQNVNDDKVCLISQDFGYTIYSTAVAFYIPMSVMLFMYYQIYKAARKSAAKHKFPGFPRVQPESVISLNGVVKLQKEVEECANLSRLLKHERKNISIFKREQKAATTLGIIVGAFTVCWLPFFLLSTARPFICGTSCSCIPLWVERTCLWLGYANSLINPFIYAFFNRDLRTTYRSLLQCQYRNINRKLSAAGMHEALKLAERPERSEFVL

| Compound | Ki (rat 5-HT7 receptor; [1]) [nM] | Ki (human SERT) [nM] | Ki (rat 5-HT7 receptor; rat 5-HT7, HEK-293 membranes) [nM] |
| --- | --- | --- | --- |
| CC(Oc1ccc(Cl)cc1OC1CNC1)c1ccc(F)c(C(F)(F)F)c1 (racemic) [Example 117, (±)-3-[5-Chloro-2-[1-(4-fluoro-3-trifluoromethyl-phenyl)-ethoxy]-phenoxy]-azetidine] | 41 | 71 |  |
| CC(Oc1ccc(Cl)cc1OC1CNC1)c1ccccc1F (racemic) [Example 121, (±)-3-[5-Chloro-2-[1-(2-fluoro-phenyl)-ethoxy]-phenoxy]-azetidine] | 33 | 164 |  |
| CC(Oc1ccc(Cl)cc1OC1CNC1)c1ccc(Cl)cc1 (racemic) [Example 123, (±)-3-[5-Chloro-2-[1-(4-chloro-phenyl)-ethoxy]-phenoxy]-azetidine] | 42 | 25 |  |
| CC(Oc1ccc(Cl)cc1OC1CNC1)c1ccc(F)cc1 (racemic) [Example 124, (±)-3-[5-Chloro-2-[1-(4-fluoro-phenyl)-ethoxy]-phenoxy]-azetidine] | 43 | 20 |  |
| CC(Oc1ccc(Cl)cc1OC1CCNCC1)c1cccc(Cl)c1 (racemic) [Example 136, (±)-4-[5-Chloro-2-[1-(3-chloro-phenyl)-ethoxy]-phenoxy]-piperidine] | 29 | 98 |  |
| CC(Oc1ccc(Cl)cc1OC1CNC1)c1ccccc1 (racemic) [Example 145, (±)-3-[5-Chloro-2-(1-phenyl-ethoxy)-phenoxy]-azetidine] | 40 | 773 |  |
| Cc1ccc2c(c1)CCC2Oc1ccc(Br)cc1OC1CNC1 (racemic) [Example 155, (±)-3-[5-Bromo-2-(5-methyl-indan-1-yloxy)-phenoxy]-azetidine] | 19 | 45 |  |
| C[C@@H]1[C@@H](Oc2ccc(Cl)cc2OC2CNC2)CN1Cc1ccccc1 (racemic) [Example 223, (±)-3-[5-Chloro-2-(trans-1-benzyl-2-methyl-azetidin-3-ol)-phenoxy]-azetidine] |  | 9000 | 145 |
| Clc1cccc(COc2cc(Br)ccc2OC2CNC2)c1 [Example 22, 3-[4-Bromo-2-(3-chloro-benzyloxy)-phenoxy]-azetidine] | 125 | 28 |  |
| CSc1cccc(COc2ccc(Cl)cc2OC2CNC2)c1 [Example 26, 3-[5-Chloro-2-(3-methylsulfanyl-benzyloxy)-phenoxy]-azetidine] | 25 | 13 |  |
| CS(=O)(=O)c1cccc(COc2ccc(Cl)cc2OC2CNC2)c1 [Example 27, 3-[5-Chloro-2-(3-methanesulfonyl-benzyloxy)-phenoxy]-azetidine] | 229 | 1680 |  |
| Clc1ccc(OCc2csc(-c3cccs3)n2)c(OC2CNC2)c1 [Example 28, 4-[2-(Azetidin-3-yloxy)-4-chloro-phenoxymethyl]-2-thiophen-2-yl-thiazole] | 49 | 683 |  |
| Cc1nc(-c2cccc(COc3ccc(Cl)cc3OC3CNC3)c2)no1 [Example 31, 3-[3-[2-(Azetidin-3-yloxy)-4-chloro-phenoxymethyl]-phenyl]-5-methyl-[1,2,4]oxadiazole hydrochloride] | 100 | 90 |  |
| FC(F)(F)c1ccccc1COc1ccc(Cl)cc1OC1CNC1 [Example 32, 3-[5-Chloro-2-(2-trifluoromethyl-benzyloxy)-phenoxy]-azetidine] | 53 | 29 |  |
| FC(F)(F)Oc1ccc(COc2ccc(Cl)cc2OC2CNC2)cc1 [Example 42, 3-[5-Chloro-2-(4-trifluoromethoxy-benzyloxy)-phenoxy]-azetidine] | 35 | 578 |  |
| FC(F)(F)c1ccc(COc2ccc(Cl)cc2OC2CNC2)cc1 [Example 43, 3-[5-Chloro-2-(4-trifluoromethyl-benzyloxy)-phenoxy]-azetidine] | 15 | 86 |  |
| C[C@H](Oc1ccc(Cl)cc1OC1CNC1)c1cccc(C(F)(F)F)c1 [Example 102, (S)-3-[5-Chloro-2-[1-(3-trifluoromethyl-phenyl)-ethoxy]-phenoxy]-azetidine trifluoroacetate] | 376 | 954 |  |

More lines, now with the values ahead:

| Ki (rat 5-HT7 receptor; [1]) [nM] | Ki (human SERT) [nM] | Ki (rat 5-HT7 receptor; rat 5-HT7, HEK-293 membranes) [nM] | Compound |
| --- | --- | --- | --- |
|  | 789 | 493 | C[C@@H]1[C@H](Oc2cc(Br)ccc2OCc2cccc(F)c2)CN1Cc1ccccc1 (relative stereo) [Example 220, cis-1-Benzyl-3-[5-bromo-2-(3-fluoro-benzyloxy)-phenoxy]-2-methyl-azetidine] |
|  | 5000 | 147 | C[C@H]1[C@H](Oc2cc(Br)ccc2OCc2cccc(F)c2)CN1Cc1ccccc1 (relative stereo) [Example 221, trans-1-Benzyl-3-[5-bromo-2-(3-fluoro-benzyloxy)-phenoxy]-2-methyl-azetidine] |
| 3160 | 197 |  | FC(F)(F)c1ccc(COc2ccc(Cl)cc2OC2CNC2)c(C(F)(F)F)c1 [Example 45, 3-[2-(2,4-Bis-trifluoromethyl-benzyloxy)-5-chloro-phenoxy]-azetidine] |
| 11 | 21 |  | Fc1ccc(COc2ccc(Cl)cc2OC2CNC2)cc1C(F)(F)F [Example 47, 3-[5-Chloro-2-(4-fluoro-3-trifluoromethyl-benzyloxy)-phenoxy]-azetidine] |
| 387 | 86 |  | Clc1ccc(OCc2ccccn2)c(OC2CNC2)c1 [Example 51, 2-[2-(Azetidin-3-yloxy)-4-chloro-phenoxymethyl]-pyridine] |
| 110 | 89 |  | Clc1ccc(OCc2cccnc2)c(OC2CNC2)c1 [Example 52, 3-[2-(Azetidin-3-yloxy)-4-chloro-phenoxymethyl]-pyridine] |
| 260 | 464 |  | Clc1ccc(OCc2ccncc2)c(OC2CNC2)c1 [Example 53, 4-[2-(Azetidin-3-yloxy)-4-chloro-phenoxymethyl]-pyridine] |
| 17 | 43 |  | FC(F)(F)c1ccc(COc2ccc(Br)cc2OC2CCNCC2)o1 [Example 64, 4-[5-Bromo-2-(5-trifluoromethyl-furan-2-ylmethoxy)-phenoxy]-piperidine] |
| 153 | 5000 |  | CN1CC(Oc2cc(Cl)ccc2OCc2cc(CO)c(C(F)(F)F)o2)C1 [Example 77] |
| 16 | 24 |  | Clc1ccc(OCc2ccc3occc3c2)c(OC2CNC2)c1 [Example 83, 3-[2-(Benzofuran-5-ylmethoxy)-5-chloro-phenoxy]-azetidine] |
| 34 | 61 |  | Clc1ccc(OCc2ccc3ncsc3c2)c(OC2CNC2)c1 [Example 84, 6-[2-(Azetidin-3-yloxy)-4-chloro-phenoxymethyl]-benzothiazole] |
| 95 | 404 |  | Cn1nnc2ccc(COc3ccc(Cl)cc3OC3CNC3)cc21 [Example 85, 6-[2-(Azetidin-3-yloxy)-4-chloro-phenoxymethyl]-1-methyl-1H-benzotriazole] |
| 38 | 121 |  | FC1(F)Oc2ccc(COc3ccc(Cl)cc3OC3CNC3)cc2O1 [Example 86, 3-[5-Chloro-2-(2,2-difluoro-benzo[1,3]dioxol-5-ylmethoxy)-phenoxy]-azetidine] |
| 25 | 242 |  | Clc1ccc(OCc2cc3ccccc3o2)c(OC2CNC2)c1 [Example 89, 3-[2-(Benzofuran-2-ylmethoxy)-5-chloro-phenoxy]-azetidine] |
| 73 | 1360 |  | CC(Oc1ccc(Cl)cc1OC1CNC1)c1nc2ccccc2s1 (stereo not shown) [Example 131, 2-[1-[2-(Azetidin-3-yloxy)-4-chloro-phenoxy]-ethyl]-benzothiazole] |

From patent publication US9981909B2 (Janssen Pharmaceutica NV, priority 2008, dated 2018)
